Assay results from patent publication US6649763B1, “Optically active quinoline carboxylic acid derivatives with 7-pyrrolidine substituents causing optical activity and a process for the preparation thereof” (Dong Wha Pharm. Ind. Co., Ltd., priority 1999, dated 2003).
In brackets after ≈: the same amount, converted by molar mass.

How the values were obtained:
Escherichia coli DC 0 = experiment: Antibacterial activity in vitro (MIC, agar dilution); type: cell-based; settings: DC0, standard strain Escherichia coli DC 0, read-out: minimum inhibitory concentration (MIC)
Protocol: (§1) The optically active quinoline carboxylic acid derivatives of the present invention were tested as to whether they could be useful as antibacterial compounds. In this regard, the compounds were measured for minimum inhibitory concentration (MIC: unit μg/ml) according to an agar dilution process (Hoechst 345) in which Muller-Hinton agars were diluted two fold. For comparison, ciprofloxacin and sparfloxacin were used as controls. Corresponding enantiomers and racemates of the compounds of interest were also used as comparative ones. Bacteria were inoculated at an amount of about 10^7 cfu/ml onto each agar. 18 hours after the inoculation at 37° C., the growth of the bacteria was observed. As to methicillin-resistant strains, their growth was observed 48 hours after the inoculation at […]. Hoechst standard strains were used as the test bacteria.

Escherichia coli DC 2 = experiment: as above; type: cell-based; settings: DC2, standard strain Escherichia coli DC 2, read-out: minimum inhibitory concentration (MIC)
Protocol: as §1

[1] = test system: Pseudomonas aeruginosa 1771M; experiment: as above; type: cell-based; settings: read-out: minimum inhibitory concentration (MIC)
Protocol: as §1

[2] = test system: Staphylococcus aureus 121E; experiment: as above; type: cell-based; settings: resistant strain Staphylococcus aureus 121E, read-out: minimum inhibitory concentration (MIC)
Protocol: as §1

[3] = test system: Staphylococcus aureus 179; experiment: as above; type: cell-based; settings: resistant strain Staphylococcus aureus 179, read-out: minimum inhibitory concentration (MIC)
Protocol: as §1

[4] = test system: Staphylococcus aureus 208E; experiment: as above; type: cell-based; settings: resistant strain Staphylococcus aureus 208E, read-out: minimum inhibitory concentration (MIC)
Protocol: as §1

[5] = test system: Staphylococcus aureus 241; experiment: as above; type: cell-based; settings: resistant strain Staphylococcus aureus 241, read-out: minimum inhibitory concentration (MIC)
Protocol: as §1

[6] = test system: Staphylococcus aureus 256E; experiment: as above; type: cell-based; settings: resistant strain Staphylococcus aureus 256E, read-out: minimum inhibitory concentration (MIC)
Protocol: as §1

[7] = test system: Staphylococcus aureus 285; experiment: as above; type: cell-based; settings: standard strain Staphylococcus aureus 285, read-out: minimum inhibitory concentration (MIC)
Protocol: as §1

[8] = test system: Staphylococcus aureus 293; experiment: as above; type: cell-based; settings: resistant strain Staphylococcus aureus 293, read-out: minimum inhibitory concentration (MIC)
Protocol: as §1

[9] = test system: Staphylococcus aureus 303; experiment: as above; type: cell-based; settings: resistant strain Staphylococcus aureus 303, read-out: minimum inhibitory concentration (MIC)
Protocol: as §1

[10] = test system: Staphylococcus aureus 503; experiment: as above; type: cell-based; settings: standard strain Staphylococcus aureus 503, read-out: minimum inhibitory concentration (MIC)
Protocol: as §1

[11] = test system: Staphylococcus aureus 690E; experiment: as above; type: cell-based; settings: resistant strain Staphylococcus aureus 690E, read-out: minimum inhibitory concentration (MIC)
Protocol: as §1

[12] = test system: Staphylococcus aureus 692E; experiment: as above; type: cell-based; settings: resistant strain Staphylococcus aureus 692E, read-out: minimum inhibitory concentration (MIC)
Protocol: as §1

[13] = test system: Staphylococcus aureus 693E; experiment: as above; type: cell-based; settings: resistant strain Staphylococcus aureus 693E, read-out: minimum inhibitory concentration (MIC)
Protocol: as §1

[14] = test system: Staphylococcus aureus 88E; experiment: as above; type: cell-based; settings: resistant strain Staphylococcus aureus 88E, read-out: minimum inhibitory concentration (MIC)
Protocol: as §1

[15] = test system: Staphylococcus aureus SG511; experiment: as above; type: cell-based; settings: standard strain Staphylococcus aureus SG511, read-out: minimum inhibitory concentration (MIC)
Protocol: as §1

[16] = test system: Streptococus faecium MD 8b; experiment: as above; type: cell-based; settings: standard strain Streptococus faecium MD 8b, read-out: minimum inhibitory concentration (MIC)
Protocol: as §1

[17] = test system: Streptococus pyogenes 308A; experiment: as above; type: cell-based; settings: standard strain Streptococus pyogenes 308A, read-out: minimum inhibitory concentration (MIC)
Protocol: as §1

[18] = test system: Streptococus pyogenes 77A; experiment: as above; type: cell-based; settings: standard strain Streptococus pyogenes 77A, read-out: minimum inhibitory concentration (MIC)
Protocol: as §1

Enterobacter cloacae P99 = experiment: as above; type: cell-based; settings: standard strain Enterobacter cloacae P99, read-out: minimum inhibitory concentration (MIC)
Source text: Corresponding enantiomers and racemates of the compounds of interest were also used as comparative ones. Bacteria were inoculated at an amount of about 10^7 cfu/ml onto each agar. […] Hoechst standard strains were used as the test bacteria.

Escherichia coli = experiment: Antibacterial activity in vitro, potency comparison; type: cell-based; settings: against Escherichia coli, a representative Gram-negative strain
Protocol: as §1

Gram-positive bacteria = experiment: as above; type: cell-based; settings: against Gram-positive bacteria
Protocol: as §1

[19] = test system: Staphylococcus aureus and Staphylococcus epidermis, both resistant to quinolone antibacterial agents; experiment: as above; type: cell-based; settings: for times as potent in antibacterial activity as ciprofloxacin / times as potent in antibacterial activity as sparfloxacin: against resistant Staphylococcus aureus and Staphylococcus epidermis; for fold more potent antibacterial activity than its enantiomer / fold more potent antibacterial activity than its racemate: against resistant staphylcoccus aureus and staphylococcus epidermis (Table 2)
Protocol: as §1

in vivo = settings: for Cmax / half-life: SD, rat, in vivo, po, 40 mg/kg
Protocol: After being starved for 16 hours, SD rats were orally administered at a dose of 40 mg/5 ml/kg with the compounds of interest and at a dose of 50 mg/5 ml/kg with the control. Immediately after being drawn at predetermined times from the eyeballs, blood was separated into plasma and other ingredients and quantitatively analyzed for pharmacokinetic parameters by use of high performance liquid chromatograph (HPLC).

[20] = test system: Staphylococcus epidermidis 319; experiment: Antibacterial activity in vitro (MIC, agar dilution); type: cell-based; settings: Staphylococcus epidermidis, 319, resistant strain Staphylococcus epidermidis 319, read-out: minimum inhibitory concentration (MIC)
Protocol: as §1

[21] = test system: Staphylococcus epidermidis 329; experiment: as above; type: cell-based; settings: Staphylococcus epidermidis, 329, resistant strain Staphylococcus epidermidis 329, read-out: minimum inhibitory concentration (MIC)
Protocol: as §1

Phototoxicity test = type: in vivo; settings: CD-1 female mice, oral 50 mg/kg; for edema and erythema observed after UV exposure / increase in ear thickness compared with before the UV exposure: after 48 hours of the UV exposure
Protocol: It is known that the presence of a halogen atom at the 8-position of the quinolone nuclei causes phototoxicity.
After 16 hours of starvation, CD-1 female mice were orally administered with a dose of 50 mg/kg of the compounds and allowed to be exposed for 4.5 hours to a UVA light source. The mice were located 15 cm away from the light source. Whether the mice were damaged in their ears was adopted as a main factor for the phototoxicity and determined after 24 hour and 48 hour UV exposure. The edema which the mice suffered were examined by measuring the thickness changes of their ears with the aid of electronic calipers and calculating average values. Also, an observation was made as to whether the mice suffered from erythema.

SMILES	MIC (Escherichia coli DC 0) [µg/mL]	MIC (Escherichia coli DC 2) [µg/mL]	MIC [1] [µg/mL]	MIC [2] [µg/mL]	MIC [3] [µg/mL]	MIC [4] [µg/mL]	MIC [5] [µg/mL]	MIC [6] [µg/mL]	MIC [7] [µg/mL]	MIC [8] [µg/mL]	MIC [9] [µg/mL]	MIC [10] [µg/mL]	MIC [11] [µg/mL]	MIC [12] [µg/mL]	MIC [13] [µg/mL]	MIC [14] [µg/mL]	MIC [15] [µg/mL]	MIC [16] [µg/mL]	MIC [17] [µg/mL]	MIC [18] [µg/mL]	further results
CO/N=C1\CN(c2nc3c(cc2F)c(=O)c(C(=O)O)cn3C2CC2)CC1(C)CN.Cl (single isomer, unassigned; (-)) [Example 9, (−)-7-(4-Aminomethyl-4-methyl-3-(Z)-methyloxyiminopyrrolidin-1-yl)-1-cyclopropyl-6-fluoro-4-oxo-1,4-dihydro[1,8]naphthyridine-3-carboxylic Acid Hydrochloride]	0.004	0.195	0.391	< 0.002	0.098	< 0.002	0.098	< 0.002	0.007	0.098	0.098	0.004	< 0.002	< 0.002	< 0.002	< 0.002	0.004	0.049	0.025	0.013	MIC (Enterobacter cloacae P99): 0.025 µg/mL; fold more potent antibacterial effect than ciprofloxacin (Escherichia coli): almost the same antibacterial potency; fold more potent antibacterial effect than sparfloxacin (Escherichia coli): almost the same antibacterial potency; fold higher antibacterial activity than ciprofloxacin (Gram-positive bacteria): 4-112 fold; fold higher antibacterial activity than sparfloxacin (Gram-positive bacteria): 4-30 fold; times as potent in antibacterial activity as ciprofloxacin [19]: 128-390 times; times as potent in antibacterial activity as sparfloxacin [19]: 24-64 times; fold more potent antibacterial activity than its enantiomer [19]: 8-32 fold; fold more potent antibacterial activity than its racemate [19]: 4 fold; Cmax (in vivo): 9060 ± 2040 ng/mL; half-life (in vivo): 4.5 h
CO/N=C1\CN(c2c(F)c(N)c3c(=O)c(C(=O)O)cn(C4CC4)c3c2F)CC1(C)CN.Cl (single isomer, unassigned; (-)) [Example 14, (−)-5-Amino-7-(4-aminomethyl-4-methyl-3-(Z)-methyloxyiminopyrrolidin-1-yl)-1-cyclopropyl-6,8-difluoro-4-oxo-1,4-dihydro-3-quinolinecarboxylic Acid Hydrochloride]	0.004	< 0.002	0.195	< 0.002	0.013	< 0.002	0.013	< 0.002	< 0.002	0.013	0.013	< 0.002	< 0.002	< 0.002	< 0.002	< 0.002	< 0.002	0.013	0.004	< 0.002	MIC [20]: 0.025 µg/mL; MIC [21]: 0.025 µg/mL; MIC (Enterobacter cloacae P99): < 0.002 µg/mL; fold more potent antibacterial effect than ciprofloxacin (Escherichia coli): 49 fold; fold more potent antibacterial effect than sparfloxacin (Escherichia coli): 12-49 fold; fold higher antibacterial activity than ciprofloxacin (Gram-positive bacteria): 30-781 fold; fold higher antibacterial activity than sparfloxacin (Gram-positive bacteria): 24-195 fold; times as potent in antibacterial activity as ciprofloxacin [19]: 129-962 times; times as potent in antibacterial activity as sparfloxacin [19]: 24-481 times; fold more potent antibacterial activity than its enantiomer [19]: 2-63 fold; fold more potent antibacterial activity than its racemate [19]: up to four fold more potent; Cmax (in vivo): 6670 ± 3330 ng/mL; half-life (in vivo): 6.94 h; Thickness of mice's ears after UV exposure, After 24 hr (Phototoxicity test; UVA light source): 21.6 ± 0.52; Thickness of mice's ears after UV exposure, After 48 hr (Phototoxicity test; UVA light source): 21.6 ± 0.52; edema and erythema observed after UV exposure (Phototoxicity test): no erythema was observed; increase in ear thickness compared with before the UV exposure (Phototoxicity test): 16.8%; Thickness of mice's ears, Before UV exposure (Phototoxicity test; baseline before UVA): 18.5 ± 0.76
CO/N=C1\CN(c2cc3c(cc2F)c(=O)c(C(=O)O)cn3C2CC2)CC1(C)CN.Cl (single isomer, unassigned; (-)) [Example 19, (−)-7-(4-Aminomethyl-4-methyl-3-(Z)-methyloxyiminopyrrolidin-1-yl)-1-cyclopropyl-6-fluoro-4-oxo-1,4-dihydro-3-quinolinecarboxylic Acid Hydrochloride]	0.007	0.195	0.195	0.007	0.195	0.007	0.195	0.007	0.007	0.195	0.195	0.007	0.004	0.004	0.007	0.007	0.004	0.049	0.049	0.013	MIC [20]: 0.391 µg/mL; MIC [21]: 0.391 µg/mL; MIC (Enterobacter cloacae P99): 0.025 µg/mL; fold more potent antibacterial activity than its enantiomer [19]: 12-32 fold; fold more potent antibacterial activity than its racemate [19]: Two-fold higher potency
O=C(O)c1cn(C2CC2)c2cc(N3CCNCC3)c(F)cc2c1=O [Ciprofloxacin, ciprofloxacin]	0.195 (≈ 0.589 µM)	0.098 (≈ 0.296 µM)	0.098 (≈ 0.296 µM)	0.781 (≈ 2.36 µM)	12.5 (≈ 37.7 µM)	0.781 (≈ 2.36 µM)	12.5 (≈ 37.7 µM)	0.781 (≈ 2.36 µM)	0.781 (≈ 2.36 µM)	12.5 (≈ 37.7 µM)	12.5 (≈ 37.7 µM)	0.391 (≈ 1.18 µM)	0.391 (≈ 1.18 µM)	0.391 (≈ 1.18 µM)	0.391 (≈ 1.18 µM)	0.781 (≈ 2.36 µM)	0.195 (≈ 0.589 µM)	0.391 (≈ 1.18 µM)	3.12 (≈ 9.43 µM)	0.391 (≈ 1.18 µM)	MIC [20]: 100 µg/mL (≈ 302 µM); MIC [21]: 50 µg/mL (≈ 151 µM); Area Under Curve (in vivo; SD rats, oral, control at 50 mg/5 ml/kg): 12720 ng·h/mL
C[C@@H]1CN(c2c(F)c(N)c3c(=O)c(C(=O)O)cn(C4CC4)c3c2F)C[C@H](C)N1 [Sparfloxacin, sparfloxacin]	0.195 (≈ 0.497 µM)	0.025 (≈ 0.0637 µM)	0.098 (≈ 0.25 µM)	0.098 (≈ 0.25 µM)	6.25 (≈ 15.9 µM)	0.098 (≈ 0.25 µM)	6.25 (≈ 15.9 µM)	0.098 (≈ 0.25 µM)	0.009 (≈ 0.0229 µM)	6.25 (≈ 15.9 µM)	3.12 (≈ 7.96 µM)	0.049 (≈ 0.125 µM)	0.049 (≈ 0.125 µM)	0.049 (≈ 0.125 µM)	0.049 (≈ 0.125 µM)	0.098 (≈ 0.25 µM)	0.098 (≈ 0.25 µM)	0.391 (≈ 0.996 µM)	0.391 (≈ 0.996 µM)	0.391 (≈ 0.996 µM)	MIC [20]: 12.5 µg/mL (≈ 31.9 µM); MIC [21]: 12.5 µg/mL (≈ 31.9 µM); MIC (Enterobacter cloacae P99): 0.007 µg/mL (≈ 0.0178 µM); edema and erythema observed after UV exposure (Phototoxicity test): serious edema and erythema; increase in ear thickness compared with before the UV exposure (Phototoxicity test): 150%
